From patent publication US20040219600A1, “Method for determining sensitivity to environmental toxins and susceptibility to parkinson's disease” (priority 2002, published 2004)

Legend:
[1] = test system: glutathione S-transferase pi2 (GSTp2) mRNA; test: Real time PCR of GSTp2 mRNA in substantia nigra after MPTP; format: in vivo, mouse; conditions: for expression of GSTp2: C57B1/6 mice; for GSTp2 levels: SW mice
Source text: Using real time PCR technology we are able to measure relative or absolute mRNA levels in from very small sample pools. The RT-PCR reaction includes a forward primer, a primer with a fluorescent 5′ reporter dye and a 3′ quencher dye, and a reverse primer, constructed to hybridize with the target of interest. The 5′ to 3′ activity of the DNA polymerase cleaves the primer between the reporter and the quencher only if the primer hybridizes to the target. The primer is then displaced from the target, polymerization of the strand continues, and the produce accumulates with each cycle. The exponential amplification of product correlates with the initial number of target molecules when normalized to an endogenous reference, and the threshold cycle calculated (a cycle during which there is an exponential accumulation of produce occurring), as long as the efficiency of the target amplification and the efficiency of the reference amplification are approximately equal. To examine the mRNA expression levels of GSTp2, we used real time PCR analysis to examine baseline levels in C57B1/6 and SW mice. […] The expression pattern in SW mice is different.
Higuchi et al (Higuchi R, et al., Simultaneous Amplification and Detection of Specific DNA Sequences, Biotech. (NY) 10:413-17 (1992)) pioneered the analysis of PCR kinetics by constructing a system that detects PCR products as they accumulate. This “real-time” system includes the intercalator ethidium bromide in each amplification reaction, an adapted thermal cycler to irradiate the samples with ultraviolet light, and detection of the resulting fluorescence with a computer-controlled cooled CCD camera. mRNA amplification produces increasing amounts of double-stranded DNA, which binds ethidium bromide, resulting in an increase in fluorescence. By plotting the increase in fluorescence versus cycle number, this method allows one to make precise quantitative measurements of mRNA expression. […]
Higuchi et al (Higuchi R, et al., Simultaneous Amplification and Detection of Specific DNA Sequences, Biotechnology (N Y) 10:413-17 (1992)) pioneered the analysis of PCR kinetics by constructing a system that detects PCR products as they accumulate. This “real-time” system includes the intercalator ethidium bromide in each amplification reaction, an adapted thermal cycler to irradiate the samples with ultraviolet light, and detection of the resulting fluorescence with a computer-controlled cooled CCD camera. Amplification produces increasing amounts of double-stranded DNA, which binds ethidium bromide, resulting in an increase in fluorescence. By plotting the increase in fluorescence versus cycle number, this method […] allows one to make precise quantitative measurements of mRNA expression.
We will be quantitating levels of glutathione S-transferase pi2 mRNA using this technique in place of traditional Northern blots since we have a limited amount of material to generate mRNA and real-time PCR amplification can give precise results with a small amount of sample material. […] Quantitative measurements are made based on the amount of fluorescence detected by amplification of the intervening primer. Details of this method are presented in numerous papers such as (Freeman W M, et al., Quantitative RT-PCR: Pitfalls and Potential. Biotechniques 26:112-122, 124-115 (1999)) as well as from the ABI website. […]

[2] = test system: postnatal substantia nigra (SN) neurons; test: MPTP-induced cell loss in postnatal substantia nigra cultures; format: cell-based, mouse; conditions: for loss of T-positive neurons: MPTP 50×10-9
[3] = test system: embryonic midbrain neurons; conditions: C57B1/6 and Swiss-Webster cultures from embryonic midbrain; cited from earlier work
SNpc neurons = test: Count of TH-positive SNpc cells one week after subcutaneous MPTP; conditions: 80 mg/kg MPTP SC (4 x 20 mg/kg)
Procedure: C57BL/6J (Jackson Laboratory), Swiss-Webster (SWR, Harlan) and C57BL/6J×SWR used in these experiments were between 3 and 5 months of age. […] All animals were generated within our vivarium at St. Jude Children's Hospital and were maintained on a 12:12 hour light: dark cycle with ad libitum food and water. Animals were treated in accord with Animal Care and Use Committee requirements. The analysis presented here is based on neuroanatomical and morphometric data from 58 animals, all of which were genotyped as described below.
Each animal was given a total of 80 mg/kg of MPTP, using a dosage regimen of 4 equal subcutaneous injections of 20 mg/kg, one given every 2 hours. Mice were monitored over the next 24 hours for the degree of mortality and the presence of seizures. […]
Prior to counting TH-positive cells, the rostral to caudal boundaries of the SNpc were identified (German, D. C., et al., The Neurotoxin MPTP Causes Degeneration of Specific Nucleus A8, A9 and A10 Dopaminergic Neurons in the Mouse, Neurodegeneration, 5:299-312 (1996)). […] TH-positive cells within the SNpc in one section per slide were counted using a 20× objective (total magnification 200×). […] The number of cells in the SNpc from several animals were also counted using unbiased stereological measurements using the Bioquant image analysis system (R & 1 Biometrics, Nashville, Tenn.).

Structure (SMILES): CN1CC=C(c2ccccc2)CC1 [MPTP, 1-methyl-4-phenyl-1,2,3,6-tetrahydropyridine]
- expression of GSTp2 ([1]; 24 hours after MPTP): 50%
- expression of GSTp2 ([1]; eight hours after the first injection of MPTP): increases
- GSTp2 levels ([1]; 8 hours after administration of MPTP): decrease
- GSTp2 levels ([1]; 24 hours after MPTP): return to baseline levels
- lower induction of glutathione S-transferase pi2 in C57B1/6 mice compared to Swiss-Webster ([1]; forty eight hours after MPTP administration): 50%
- loss of T-positive neurons ([2]; SN cultures derived from SWR mice): 10±3%
- loss of T-positive neurons ([2]; SN cultures from C57B1/6 mice): 50±5%
- percent cell loss in vitro as fraction of the in vivo value ([2]; in vitro SN culture versus in vivo): approximately 80%
- cell death [3]: little cell death
- number of SNpc neurons following MPTP treatment (SNpc neurons; C57B1/6 animals): 3300±200
- number of SNpc neurons following MPTP treatment (SNpc neurons; SWR animals): 5480+/−239
